Measurements: patent US20200261484A1, “INHIBITION OF AUTISM SPECTRUM DISORDER USING RIBOSOMAL READ-THROUGH COMPOUNDS” (Friedrich Miescher Inst. for Biomedical Research, priority 2017, published 2020)

Test system: Adnp-PTC718 expressing cells
Experiment: Streptavidin purification and LC-MS/MS of FLAG/Avi-tagged Adnp-PTC718 from cells with and without aminoglycoside treatment (stop codon read-through, ChAHP complex formation)
Assay type: cell-based, mouse
Settings: Adnp-PTC718 expressing cells treated with 2 mg/ml gentamycin (2.9 mM) or paromomycin (3.2 mM) for 24 hours; LC-MS/MS of streptavidin-purified Adnp-PTC718
Experimental: FLAG/Avi-tagged Adnp-PTC718 was streptavidin purified from cells with and without aminoglycoside treatment and subjected to LC-MS/MS analysis. Adnp-PTC718 expressing cells were treated with 2 mg/ml gentamycin (2.9 mM) or paromomycin (3.2 mM) for 24 hours. The table depicts total spectral counts, unique peptides and percent sequence coverage for all ChAHP components from the different treatments.
Cells were grown to confluency on 10 cm dish, collected in PBS, and pelleted by 2 min centrifugation at 400 g. All subsequent steps were performed on ice or at 4 C. Pellets were resuspended in 3 ml of Nuclear extract buffer 1 (NEB1: 20 mM HEPES, 10 mM KCl, 1 mM EDTA, 0.1 mM Na3VO4, 0.2% NP-40, 10% glycerol, 1 mM DTT, 1×PIC) followed by centrifugation at 1000 g for 3 min. […] Protein concentration was determined using Bradford assay, and approximately 250 µg of nuclear extracts were used per affinity purification. […] The generated peptides were acidified with TFA to a final concentration of 0.8% and analyzed by capillary liquid chromatography tandem mass spectrometry with an EASY-nLC 1000 using the two-column set-up (Thermo Scientific). […] Protein identification and relative quantification of the proteins was done with MaxQuant version 1.5.3.8 using Andromeda as search engine^33 and label free quantification (LFQ.^34) as described in^35. […]

| Compound | formation of the ChAHP complex (stop codon read-through) |
| --- | --- |
| NC[C@@H]1O[C@H](O[C@H]2[C@@H](O)[C@H](O[C@@H]3[C@@H](O)[C@H](N)C[C@H](N)[C@H]3O[C@H]3O[C@H](CO)[C@@H](O)[C@H](O)[C@H]3N)O[C@@H]2CO)[C@H](N)[C@@H](O)[C@@H]1O [paromomycin] | restore the formation of the ChAHP complex |
| gentamycin | restore the formation of the ChAHP complex |
